The text below walks through data of patent EP2712863B1, “Novel inhibitors of bacterial biofilms and related methods” (Sequoia Sciences, Inc., priority 2012, dated 2014).

Molecules are shown by their SMILES. ≈ marks a conversion by molar mass, not a printed value. Like-named read-outs stand apart in the source and are kept apart here.

One assay has as its system P. aeruginosa. The assay is described as follows: Biofilm growth assay (spreading biofilm on semi-solid agar). It is filed as cell-based. The note with it: concentration that reduces the area of the spreading biofilm by >= 85%; for IC85: Pseudomonas aeruginosa, read-out: P. aeruginosa.
The test system of a further assay is E. coli. The description is as above. The class given is cell-based. Particulars: concentration that reduces the area of the spreading biofilm by >= 85%; for IC85: Escherichia coli, read-out: E. coli. Summed up:
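Spreading (swarming) biofilm on semi-solid agar: E. coli on LB with 0.6% agar and 0.5% glucose; P. aeruginosa on M8 agar with 0.2% glucose, 100 µM CaCl2, 1 mM MgSO4, 0.5% Casamino acids. Compound in medium; 5 µL overnight culture spotted centrally, 37°C overnight. Value: concentration (µg/ml) giving ≥85% reduction in spread area versus negative control.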

Regarding `CN(C)c1ccc(C2=C3[C@@H]4CC(C)(C)CC[C@]4(C(=O)O)CC[C@@]3(C)[C@]3(C)CC[C@H]4C(C)(C)c5n[nH]c(N)c5C[C@]4(C)C3C2)cn1` (stereo partly drawn) [Compound 44, (4aS,6aS,6bR,8aR,13aR,15bS)-12-Amino-15-(6-(dimethylamino)pyridin-3-yl)-2,2,6a,6b,9,9,13a-heptamethyl-2,3,4,4a,5,6,6a,6b,7,8,8a,9,11,13,13a,13b,14,15b-octadecahydro-1H-chryseno[1,2-f]indazole-4a-carboxylic acid], the IC85 is 0.5 µg/mL (≈ 0.814 µM) in the assay on P. aeruginosa (Table 3) and 2 µg/mL (≈ 3.26 µM) in the assay with E. coli (Table 3).
Take `CC1(C)CC[C@]2(C(=O)O)CC[C@]3(C)C(=C(c4ccoc4CN4CCCC4)CC4[C@@]5(C)Cc6c(n[nH]c6N)C(C)(C)C5CC[C@]43C)C2C1` (stereo partly drawn) [Compound 37, (4aS,6aS,6bR,13aR)-12-Amino-2,2,6a,6b,9,9,13a-heptamethyl-15-(2-(pyrrolidin-1-ylmethyl)furan-3-yl)-2,3,4,4a,5,6,6a,6b,7,8,8a,9,11,13,13a,13b,14,15b-octadecahydro-1H-chryseno[1,2-f]indazole-4a-carboxylic acid]: the results for the IC85 with P. aeruginosa (Table 3) and with E. coli (Table 3) were over 1 µg/mL and 1 µg/mL (≈ 1.56 µM), respectively.
As to `CC1(C)CC[C@]2(c3nnco3)CC[C@]3(C)C(=CCC4[C@@]5(C)Cc6c(n[nH]c6N)C(C)(C)C5CC[C@]43C)C2C1` (stereo partly drawn) [Compound 67, (4aS,6aS,6bR,13aR)-2,2,6a,6b,9,9,13a-Heptamethyl-4a-(1,3,4-oxadiazol-2-yl)-2,3,4,4a,5,6,6a,6b,7,8,8a,9,11,13,13a,13b,14,15b-octadecahydro-1H-chryseno[1,2-]indazol-12-amine], in the assay on P. aeruginosa (Table 4), the “P. aeruginosa” value is 1 µg/mL. Further, the “E. coli” value with E. coli (Table 4) amounted to 2 µg/mL.
On to `CC1(C)CC[C@]2(C(=O)O)CC[C@]3(C)C(=C(c4cccc(C(N)=O)c4)CC4[C@@]5(C)Cc6c(n[nH]c6N)C(C)(C)C5CC[C@]43C)C2C1` (stereo partly drawn) [Compound 19, (4aS,6aS,6bR,13aR)-12-Amino-15-(3-carbamoylphenyl)-2,2,6a,6b,9,9,13a-heptamethyl-2,3,4,4a,5,6,6a,6b,7,8,8a,9,11,13,13a,13b,14,15b-octadecahydro-1H-chryseno[1,2-f]indazole-4a-carboxylic acid], for which the IC85 in the assay with P. aeruginosa (Table 3) and in the assay on E. coli (Table 3) was 1 µg/mL (≈ 1.63 µM) throughout.
Turning to `CC1(C)CC[C@]2(C(=O)O)CC[C@]3(C)C(=C(c4ccc(CN5CCOCC5)cc4)CC4[C@@]5(C)Cc6c(n[nH]c6N)C(C)(C)C5CC[C@]43C)C2C1` (stereo partly drawn) [Compound 52, (4aS,6aS,6bR,13aR)-12-Amino-2,2,6a,6b,9,9,13a-heptamethyl-15-(4-(morpholinomethyl)phenyl)-2,3,4,4a,5,6,6a,6b,7,8,8a,9,11,13,13a,13b,14,15b-octadecahydro-1H-chryseno[1,2-f]indazole-4a-carboxylic acid], the IC85 came to 1 µg/mL (≈ 1.49 µM) in the assay on P. aeruginosa (Table 3) and 2 µg/mL (≈ 2.99 µM) in the assay on E. coli (Table 3).
As for `CC1(C)CC[C@]2(C(=O)O)CC[C@]3(C)C(=C(c4ccc(N5CCNCC5)cc4)CC4[C@@]5(C)Cc6c(n[nH]c6N)C(C)(C)C5CC[C@]43C)C2C1` (stereo partly drawn) [Compound 50, (4aS,6aS,6bR,13aR)-12-Amino-2,2,6a,6b,9,9,13a-heptamethyl-15-(4-(piperazin-1-yl)phenyl)-2,3,4,4a,5,6,6a,6b,7,8,8a,9,11,13,13a,13b,14,15b-octadecahydro-1H-chryseno[1,2-f]indazole-4a-carboxylic acid], the IC85 in the assay with P. aeruginosa (Table 3) came to 2 µg/mL (≈ 3.06 µM); in the assay on E. coli (Table 3), 1 µg/mL (≈ 1.53 µM).
For `CC1(C)CC[C@]2(c3n[nH]c(O)c3CCN)CC[C@]3(C)C(=CCC4[C@@]5(C)Cc6c(n[nH]c6N)C(C)(C)C5CC[C@]43C)C2C1` (stereo partly drawn) [Compound 84, 3-((4aS,6aS,6bR,13aR)-12-Amino-2,2,6a,6b,9,9,13a-heptamethyl-2,3,4,4a,5,6,6a,6b,7,8,8a,9,11,13,13a,13b,14,15b-octadecahydro-1H-chryseno[1,2-f]indazol-4a-yl)-4-(2-aminoethyl)-1H-pyrazol-5-ol], the IC85 in the assay with P. aeruginosa (Table 4) worked out at 0.125 µg/mL (≈ 0.217 µM); in the assay with E. coli (Table 4), 0.5 µg/mL (≈ 0.87 µM).
On to `C/C=C/C1=C2[C@@H]3CC(C)(C)CC[C@]3(C(=O)O)CC[C@@]2(C)[C@]2(C)CC[C@H]3C(C)(C)c4n[nH]c(N)c4C[C@]3(C)C2C1` (stereo partly drawn) [Compound 5, (4aS,6aS,6bR,8aR,13aR,15bS)-12-Amino-2,2,6a,6b,9,9,13a-heptamethyl-15-((E)-prop-1-enyl)-2,3,4,4a,5,6,6a,6b,7,8,8a,9,11,13,13a,13b,14,15b-octadecahydro-1H-chryseno[1,2-f]indazole-4a-carboxylic acid], for which the IC85 in the assay on P. aeruginosa (Table 2) came to 0.5 µg/mL (≈ 0.937 µM); in the assay with E. coli (Table 2), 1 µg/mL (≈ 1.87 µM).
`CC1(C)CC[C@]2(C(=O)Nc3cc(N)n[nH]3)CC[C@]3(C)C(=CCC4[C@@]5(C)Cc6c(n[nH]c6N)C(C)(C)C5CC[C@]43C)C2C1` (stereo partly drawn) [Compound 69, (4aS,6aS,6bR,13aR)-12-amino-N-(3-amino-1H-pyrazol-5-yl)-2,2,6a,6b,9,9,13a-heptamethyl-2,3,4,4a,5,6,6a,6b,7,8,8a,9,11,13,13a,13b,14,15b-octadecahydro-1H-chryseno[1,2-f]indazole-4a-carboxamide]: the IC85 with P. aeruginosa (Table 4) and in the assay on E. coli (Table 4) was 1 µg/mL (≈ 1.74 µM) in each case.
As for `CC1(C)CC[C@]2(C(=O)O)CC[C@]3(C)C(=CCC4[C@@]5(C)Cc6c(n[nH]c6N)C(C)(C)C5CC[C@]43C)C2C1` (stereo partly drawn) [Compound 2, (4aS,6aS,6bR,13aR)-12-Amino-2,2,6a,6b,9,9,13a-heptamethyl-2,3,4,4a,5,6,6a,6b,7,8,8a,9,11,13,13a,13b,14,15b-octadecahydro-1H-chryseno[1,2-f]indazole-4a-carboxylic acid], the “P. aeruginosa” value in the assay with P. aeruginosa (Table 2) came out at 0.5 µg/mL. In addition, the “E. coli” value with E. coli (Table 2) was found to be 1 µg/mL.
As for `CNc1ccc(C2=C3[C@@H]4CC(C)(C)CC[C@]4(C(=O)O)CC[C@@]3(C)[C@]3(C)CC[C@H]4C(C)(C)c5n[nH]c(N)c5C[C@]4(C)C3C2)cn1` (stereo partly drawn) [Compound 43, (4aS,6aS,6bR,8aR,13aR,15bS)-12-Amino-2,2,6a,6b,9,9,13a-heptamethyl-15-(6-(methylamino)pyridin-3-yl)-2,3,4,4a,5,6,6a,6b,7,8,8a,9,11,13,13a,13b,14,15b-octadecahydro-1H-chryseno[1,2-f]indazole-4a-carboxylic acid], the IC85 in the assay with P. aeruginosa (Table 3) and in the assay on E. coli (Table 3) was 1 µg/mL (≈ 1.67 µM) in each case.
On to `CC1(C)CC[C@]2(C(=O)Nc3nnc(S(N)(=O)=O)s3)CC[C@]3(C)C(=CCC4[C@@]5(C)Cc6c(n[nH]c6N)C(C)(C)C5CC[C@]43C)C2C1` (stereo partly shown) [Compound 80], for which the “P. aeruginosa” value in the assay on P. aeruginosa (Table 4) was 1 µg/mL. Besides, in the assay with E. coli (Table 4), the “E. coli” value is 1 µg/mL.
Regarding `CC1(C)CC[C@]2(C(=O)O)CC[C@]3(C)C(=C(c4ccc(N5CCC(N)C5)nc4)CC4[C@@]5(C)Cc6c(n[nH]c6N)C(C)(C)C5CC[C@]43C)C2C1` (stereo partly drawn) [Compound 58, (4aS,6aS,6bR,13aR)-12-Amino-15-(6-(3-aminopyrrolidin-1-yl)pyridin-3-yl)-2,2,6a,6b,9,9,13a-heptamethyl-2,3,4,4a,5,6,6a,6b,7,8,8a,9,11,13,13a,13b,14,15b-octadecahydro-1H-chryseno[1,2-f]indazole-4a-carboxylic acid], the IC85 in the assay on P. aeruginosa (Table 3) was found to be 1 µg/mL (≈ 1.53 µM); in the assay on E. coli (Table 3), 2 µg/mL (≈ 3.05 µM).
With `CC1(C)CC[C@]2(C(=O)O)CC[C@]3(C)C(=C(c4cccc5cnccc45)CC4[C@@]5(C)Cc6c(n[nH]c6N)C(C)(C)C5CC[C@]43C)C2C1` (stereo partly drawn) [Compound 46, (4aS,6aS,6bR,13aR)-12-Amino-15-(isoquinolin-5-yl)-2,2,6a,6b,9,9,13a-heptamethyl-2,3,4,4a,5,6,6a,6b,7,8,8a,9,11,13,13a,13b,14,15b-octadecahydro-1H-chryseno[1,2-f]indazole-4a-carboxylic acid], the IC85 in the assay with P. aeruginosa (Table 3) came to 0.5 µg/mL (≈ 0.805 µM); in the assay on E. coli (Table 3) it was 1 µg/mL (≈ 1.61 µM).
For the compound `CC1(C)CC[C@]2(C(=O)O)CC[C@]3(C)C(=C(c4ccoc4CN4CCNCC4)CC4[C@@]5(C)Cc6c(n[nH]c6N)C(C)(C)[C@@H]5CC[C@]43C)[C@@H]2C1` (stereo partly drawn) [Compound 35, (4aS,6aS,6bR,8aR,13aR,15bS)-12-Amino-2,2,6a,6b,9,9,13a-heptamethyl-15-(2-(piperazin-1-ylmethyl)furan-3-yl)-2,3,4,4a,5,6,6a,6b,7,8,8a,9,11,13,13a,13b,14,15b-octadecahydro-1H-chryseno[1,2-f]indazole-4a-carboxylic acid], the IC85 with P. aeruginosa (Table 3) is over 1 µg/mL; with E. coli (Table 3) it was 1 µg/mL (≈ 1.52 µM).
For the compound `CC1(C)CC[C@]2(c3nnc(S)[nH]3)CC[C@]3(C)C(=CCC4[C@@]5(C)Cc6c(n[nH]c6N)C(C)(C)C5CC[C@]43C)C2C1` (stereo partly drawn) [Compound 75, 5-((4aS,6aS,6bR,13aR)-12-Amino-2,2,6a,6b,9,9,13a-heptamethyl-2,3,4,4a,5,6,6a,6b,7,8,8a,9,11,13,13a,13b,14,15b-octadecahydro-1H-chryseno[1,2-f]indazol-4a-yl)-4H-1,2,4-triazole-3-thiol], the IC85 came to 0.5 µg/mL (≈ 0.911 µM) with P. aeruginosa (Table 4) and 1 µg/mL (≈ 1.82 µM) in the assay on E. coli (Table 4).
In the case of `CN(C)c1cc(C2=C3[C@@H]4CC(C)(C)CC[C@]4(C(=O)O)CC[C@@]3(C)[C@]3(C)CC[C@H]4C(C)(C)c5n[nH]c(N)c5C[C@]4(C)C3C2)ccn1` (stereo partly drawn) [Compound 22, (4aS,6aS,6bR,8aR,13aR,15bS)-12-Amino-15-(2-(dimethylamino)pyridin-4-yl)-2,2,6a,6b,9,9,13a-heptamethyl-2,3,4,4a,5,6,6a,6b,7,8,8a,9,11,13,13a,13b,14,15b-octadecahydro-1H-chryseno[1,2-f]indazole-4a-carboxylic acid], the IC85 with P. aeruginosa (Table 3) was 1 µg/mL (≈ 1.63 µM); in the assay with E. coli (Table 3), over 2 µg/mL.
